The target in one test is T1, Progesterone receptor (Bos taurus, UniProt Q690N0).
T1 sequence (Q690N0 whole entry): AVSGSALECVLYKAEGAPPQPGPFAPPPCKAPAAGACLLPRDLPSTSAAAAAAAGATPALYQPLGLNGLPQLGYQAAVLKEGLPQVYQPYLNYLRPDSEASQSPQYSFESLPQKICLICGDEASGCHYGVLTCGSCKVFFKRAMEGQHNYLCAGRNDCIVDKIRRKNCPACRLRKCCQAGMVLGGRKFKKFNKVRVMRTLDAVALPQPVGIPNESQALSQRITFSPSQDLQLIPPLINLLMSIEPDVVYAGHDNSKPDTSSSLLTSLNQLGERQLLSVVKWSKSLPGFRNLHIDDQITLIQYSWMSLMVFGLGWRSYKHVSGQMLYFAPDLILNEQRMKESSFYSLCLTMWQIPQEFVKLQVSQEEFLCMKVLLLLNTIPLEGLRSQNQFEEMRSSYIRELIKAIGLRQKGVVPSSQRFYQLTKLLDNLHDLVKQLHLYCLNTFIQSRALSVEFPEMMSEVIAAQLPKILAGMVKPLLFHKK
Kind of test: DRUGMATRIX: Progesterone radioligand binding (ligand: [3H] R-5020). In kind it is tissue-based, Uterus. The following applies: Not Active = under 50% inhibition at 10 µM.

The target in test [1] is Protein kinase C alpha type (Homo sapiens, UniProt P17252). In kind it is cell-based. The following applies: sf9.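 Also: inhibition of PKCalpha kinase activity measured in an enzyme assay with histone as the phosphorylation substrate; in other assays of this panel Not Active means under 50% inhibition at 10 µM.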
The target of test [2] is Beta-3 adrenergic receptor (Homo sapiens, UniProt P13945). Kind of test: DRUGMATRIX: Adrenergic beta3 radioligand binding (ligand: [125I] Cyanopindolol). The class given is cell membranes, HEK293, Membrane. The following applies: hek293; Not Active = under 50% inhibition at 10 µM.
Sequence of Beta-3 adrenergic receptor (P13945 whole entry): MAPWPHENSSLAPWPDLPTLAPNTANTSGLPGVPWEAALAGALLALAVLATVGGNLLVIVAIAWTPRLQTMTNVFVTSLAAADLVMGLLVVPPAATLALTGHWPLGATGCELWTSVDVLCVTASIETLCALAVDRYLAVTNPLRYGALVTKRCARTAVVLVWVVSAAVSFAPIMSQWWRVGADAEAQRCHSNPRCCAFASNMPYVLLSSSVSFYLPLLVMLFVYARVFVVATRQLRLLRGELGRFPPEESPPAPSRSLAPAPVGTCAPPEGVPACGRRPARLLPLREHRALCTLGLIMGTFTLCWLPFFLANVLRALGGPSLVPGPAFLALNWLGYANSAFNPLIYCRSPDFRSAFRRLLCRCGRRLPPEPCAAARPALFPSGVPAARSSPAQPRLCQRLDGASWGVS
Test [3] concerns the target Epidermal growth factor receptor (Homo sapiens, UniProt P00533). Put plainly: DRUGMATRIX: Protein Tyrosine Kinase, EGF Receptor enzyme inhibition (substrate: Poly(Glu:Tyr)). The class given is cell-based, Insect cells. The following applies: Not Active = under 50% inhibition at 10 µM.
Test [4] deals with Receptor tyrosine-protein kinase erbB-2 (Homo sapiens, UniProt P04626). Kind of test: biochemical. The class given is cell-based, Insect cells.
Sequence of Receptor tyrosine-protein kinase erbB-2 (P04626 whole entry): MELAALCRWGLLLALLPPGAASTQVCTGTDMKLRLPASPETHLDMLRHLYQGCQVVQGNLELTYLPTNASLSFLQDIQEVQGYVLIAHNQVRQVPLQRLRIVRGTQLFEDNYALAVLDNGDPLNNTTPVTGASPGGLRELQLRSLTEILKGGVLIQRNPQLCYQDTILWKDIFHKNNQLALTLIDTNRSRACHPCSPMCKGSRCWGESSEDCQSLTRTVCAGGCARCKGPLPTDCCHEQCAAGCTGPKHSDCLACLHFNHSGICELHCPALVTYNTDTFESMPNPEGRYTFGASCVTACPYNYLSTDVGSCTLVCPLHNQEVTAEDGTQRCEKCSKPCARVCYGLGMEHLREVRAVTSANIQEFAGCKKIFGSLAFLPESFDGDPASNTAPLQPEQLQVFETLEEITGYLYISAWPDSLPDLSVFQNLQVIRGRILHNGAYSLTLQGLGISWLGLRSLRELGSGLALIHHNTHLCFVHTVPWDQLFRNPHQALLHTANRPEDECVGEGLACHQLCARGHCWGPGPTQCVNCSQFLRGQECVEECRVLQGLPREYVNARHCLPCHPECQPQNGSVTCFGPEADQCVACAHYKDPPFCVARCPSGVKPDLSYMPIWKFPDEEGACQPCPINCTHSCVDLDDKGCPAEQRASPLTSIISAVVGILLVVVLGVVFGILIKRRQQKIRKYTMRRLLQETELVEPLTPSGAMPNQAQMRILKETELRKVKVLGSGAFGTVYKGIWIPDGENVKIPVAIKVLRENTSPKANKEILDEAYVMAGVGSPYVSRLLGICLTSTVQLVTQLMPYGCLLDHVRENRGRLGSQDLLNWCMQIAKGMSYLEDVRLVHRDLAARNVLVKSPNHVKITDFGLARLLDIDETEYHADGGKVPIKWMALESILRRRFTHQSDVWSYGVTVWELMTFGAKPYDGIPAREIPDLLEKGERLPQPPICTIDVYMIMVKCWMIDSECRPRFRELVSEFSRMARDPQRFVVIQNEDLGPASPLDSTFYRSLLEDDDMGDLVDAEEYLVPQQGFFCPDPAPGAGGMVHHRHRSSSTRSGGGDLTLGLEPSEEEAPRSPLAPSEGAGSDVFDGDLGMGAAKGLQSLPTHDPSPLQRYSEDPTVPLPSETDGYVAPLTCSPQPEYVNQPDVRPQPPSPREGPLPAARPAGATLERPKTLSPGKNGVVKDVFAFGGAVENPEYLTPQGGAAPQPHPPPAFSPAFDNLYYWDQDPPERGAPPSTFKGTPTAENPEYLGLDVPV

The IC50 is the concentration at which inhibition is half-maximal. In general, Ki refers to a measure of affinity in units of concentration, obtained from inhibition or displacement.

Sequence of Epidermal growth factor receptor (P00533 whole entry): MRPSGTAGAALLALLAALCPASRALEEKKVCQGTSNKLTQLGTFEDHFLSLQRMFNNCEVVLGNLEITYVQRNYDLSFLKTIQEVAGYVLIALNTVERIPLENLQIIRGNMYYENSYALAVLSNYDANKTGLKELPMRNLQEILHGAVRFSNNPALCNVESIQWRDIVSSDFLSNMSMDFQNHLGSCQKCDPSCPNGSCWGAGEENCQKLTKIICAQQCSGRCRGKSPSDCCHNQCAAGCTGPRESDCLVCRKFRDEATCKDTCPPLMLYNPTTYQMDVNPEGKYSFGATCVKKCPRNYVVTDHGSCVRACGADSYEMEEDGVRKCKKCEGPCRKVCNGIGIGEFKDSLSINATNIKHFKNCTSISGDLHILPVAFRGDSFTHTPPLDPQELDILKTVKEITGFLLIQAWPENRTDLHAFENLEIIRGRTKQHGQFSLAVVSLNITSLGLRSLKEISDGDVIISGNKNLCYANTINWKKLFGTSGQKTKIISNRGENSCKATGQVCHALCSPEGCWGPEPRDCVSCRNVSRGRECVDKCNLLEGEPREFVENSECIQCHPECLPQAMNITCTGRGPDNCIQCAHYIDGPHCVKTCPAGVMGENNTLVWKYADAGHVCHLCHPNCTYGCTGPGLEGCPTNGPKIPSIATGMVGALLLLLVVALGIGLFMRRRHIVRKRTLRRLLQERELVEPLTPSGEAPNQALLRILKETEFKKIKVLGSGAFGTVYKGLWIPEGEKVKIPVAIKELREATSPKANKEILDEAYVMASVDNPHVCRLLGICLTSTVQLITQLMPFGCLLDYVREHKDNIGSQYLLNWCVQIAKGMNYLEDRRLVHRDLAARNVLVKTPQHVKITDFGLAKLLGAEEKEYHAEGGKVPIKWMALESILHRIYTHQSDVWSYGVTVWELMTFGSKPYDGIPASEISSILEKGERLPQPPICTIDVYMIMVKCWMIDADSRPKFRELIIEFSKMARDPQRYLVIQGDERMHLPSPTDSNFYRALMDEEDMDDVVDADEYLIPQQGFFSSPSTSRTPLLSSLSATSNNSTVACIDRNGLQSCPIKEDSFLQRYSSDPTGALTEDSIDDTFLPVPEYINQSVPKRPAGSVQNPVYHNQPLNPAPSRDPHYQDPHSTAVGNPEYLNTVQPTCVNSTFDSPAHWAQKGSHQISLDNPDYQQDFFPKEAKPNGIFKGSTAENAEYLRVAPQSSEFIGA

As for `Nn1nnc2ccccc21`, the IC50 entry (on Progesterone receptor; in test [1]; in test [2]; in test [3] (insect cells); in test [4] (insect cells)) was “Not Active” each time.

Take `CC[C@]1(O)CC[C@H]2[C@@H]3CCC4=CCCC[C@@H]4[C@H]3CC[C@@]21C`: the 50% inhibitory concentration (IC50) at Progesterone receptor (read-out: IC50) was 201 nM; in test [1], “Not Active”; in test [2], “Not Active”; in test [3] (insect cells) it was “Not Active”; in test [4] (insect cells) it was “Not Active”. Moreover, the Ki at Progesterone receptor (read-out: Ki) came out at 26 nM.

For the molecule `N[C@@H](Cc1ccc(F)cc1)C(=O)O`, the half-maximal inhibitory concentration (IC50) result (on Progesterone receptor; in test [1]; in test [2]; in test [3] (insect cells); in test [4] (insect cells)) was “Not Active” each time.

Regarding `CCOC(=O)[C@H](CCc1ccccc1)N[C@@H](C)C(=O)N1Cc2ccccc2C[C@H]1C(=O)O`, the half-inhibitory concentration (IC50) entry (at Progesterone receptor; in test [1]; in test [2]; in test [3] (insect cells); in test [4] (insect cells)) was “Not Active” each time.

As to `O=C(c1ccccc1Cl)N1CCC(Cc2ccccc2)CC1`, the IC50 entry (on Progesterone receptor; in test [1]; in test [2]; in test [3] (insect cells); in test [4] (insect cells)) was “Not Active” in each case.

In the case of `CCOC(=O)[C@H](CCc1ccccc1)N[C@@H](C)C(=O)N1CCC[C@H]1C(=O)O`, the IC50 result in test [1], in test [2], in test [3] (insect cells) and in test [4] (insect cells) was “Not Active” each time.

Take `Clc1cc2c(cc1Cl)Oc1cc(Cl)c(Cl)cc1O2` [2,3,7,8-TETRACHLORODIBENZO-P-DIOXIN]: the IC50 entry (on Progesterone receptor; in test [1]; in test [2]; in test [3] (insect cells); in test [4] (insect cells)) was “Not Active” in each case.

Consider `C=C1/C(=C\C=C2/CCC[C@]3(C)[C@@H]([C@H](C)CCCC(C)C)CC[C@@H]23)C[C@@H](O)C[C@@H]1O` [ALFACALCIDOL], for which the concentration for half-maximal inhibition (IC50) entry (at Progesterone receptor; in test [1]; in test [2]; in test [3] (insect cells); in test [4] (insect cells)) was “Not Active” throughout.

In the case of `CCCCCC[C@H]1C(=O)O[C@H](C)[C@H](NC(=O)c2cccc(NC=O)c2O)C(=O)O[C@@H](C)[C@@H]1OC(=O)CC(C)C` [ANTIMYCIN A], the IC50 result (at Progesterone receptor; in test [1]; in test [2]; in test [3] (insect cells); in test [4] (insect cells)) was “Not Active” each time.

As for `C[C@@H]1CC[C@H]2[C@@H](C)C(=O)O[C@@H]3O[C@@]4(C)CC[C@@H]1[C@]32OO4` [ARTEMISININ], the IC50 entry (on Progesterone receptor; in test [1]; in test [2]; in test [3] (insect cells); in test [4] (insect cells)) was “Not Active” throughout.

Take `CO[C@H]1[C@@H](O)[C@H](N)[C@@H](O[C@H]2O[C@H]([C@H](C)N)CC[C@H]2N)[C@H](O)[C@@H]1N(C)C(=O)CN` [ASTROMICIN]: the IC50 result (on Progesterone receptor; in test [1]; in test [2]; in test [3] (insect cells); in test [4] (insect cells)) was “Not Active” each time.

Turning to `[N-]=[N+]=CC(=O)OC[C@H](N)C(=O)O` [AZASERINE], the IC50 result (at Progesterone receptor; in test [1]; in test [2]; in test [3] (insect cells); in test [4] (insect cells)) was “Not Active” throughout.

With `CC[C@H]1OC(=O)[C@H](C)[C@@H](O[C@H]2C[C@@](C)(OC)[C@@H](O)[C@H](C)O2)[C@H](C)[C@@H](O[C@@H]2O[C@H](C)C[C@H](N(C)C)[C@H]2O)[C@](C)(O)C[C@@H](C)CN(C)[C@H](C)[C@@H](O)[C@]1(C)O` [AZITHROMYCIN], the IC50 entry (at Progesterone receptor; in test [1]; in test [2]; in test [3] (insect cells); in test [4] (insect cells)) was “Not Active” in each case.

As for `CC(C)(C)c1ccc(S(=O)(=O)/C=C/C#N)cc1` [BAY-11-7085], the half-maximal inhibitory concentration (IC50) result (on Progesterone receptor; in test [1]; in test [2]; in test [3] (insect cells); in test [4] (insect cells)) was “Not Active” throughout.

For the molecule `CCc1oc2ccccc2c1C(=O)c1cc(Br)c(O)c(Br)c1` [BENZBROMARONE], the IC50 result (on Progesterone receptor; in test [1]; in test [2]; in test [3] (insect cells); in test [4] (insect cells)) was “Not Active” in each case.

As for `O=c1cc(-c2ccccc2)oc2ccc3ccccc3c12` [BETA-NAPHTHOFLAVONE], the concentration for half-maximal inhibition (IC50) entry (at Progesterone receptor; in test [1]; in test [2]; in test [3] (insect cells); in test [4] (insect cells)) was “Not Active” throughout.

`CC(C)C[C@H]1C(=O)N2CCC[C@H]2[C@]2(O)O[C@](NC(=O)[C@@H]3C=C4c5cccc6[nH]c(Br)c(c56)C[C@H]4N(C)C3)(C(C)C)C(=O)N12` [BROMOCRIPTINE]: the half-maximal inhibitory concentration (IC50) entry (at Progesterone receptor; in test [1]; in test [2]; in test [3] (insect cells); in test [4] (insect cells)) was “Not Active” throughout.

Regarding `CS(=O)(=O)OCCCCOS(C)(=O)=O` [BUSULFAN], the concentration for half-maximal inhibition (IC50) result (on Progesterone receptor; in test [1]; in test [2]; in test [3] (insect cells); in test [4] (insect cells)) was “Not Active” in each case.

Take `O=C(/C=C/c1ccc(O)c(O)c1)OCCc1ccccc1` [CAFFEIC ACID PHENETHYL ESTER]: the IC50 result at Progesterone receptor is “Not Active”; in test [1] it was “Not Active”; in test [2], “Not Active”; in test [3] (read-out: IC50), 1010 nM; in test [4] (read-out: IC50), 1330 nM.

In the case of `COc1cc(CNC(=O)CCCC/C=C/C(C)C)ccc1O` [CAPSAICIN], the half-inhibitory concentration (IC50) result (at Progesterone receptor; in test [1]; in test [2]; in test [3] (insect cells); in test [4] (insect cells)) was “Not Active” in each case.

On to `NC(=O)N1c2ccccc2C=Cc2ccccc21` [CARBAMAZEPINE], for which the IC50 entry (at Progesterone receptor; in test [1]; in test [2]; in test [3] (insect cells); in test [4] (insect cells)) was “Not Active” throughout.

In the case of `CCOC(=O)n1ccn(C)c1=S` [CARBIMAZOLE], the IC50 entry (on Progesterone receptor; in test [1]; in test [2]; in test [3] (insect cells); in test [4] (insect cells)) was “Not Active” each time.

Take `Oc1ccccc1O` [CATECHOL]: the 50% inhibitory concentration (IC50) result on Progesterone receptor is “Not Active”; in test [1], “Not Active”; in test [2] it was “Not Active”; in test [3] (read-out: IC50) it was 26000 nM; in test [4] (insect cells) it was “Not Active”.

For `CO[C@@]1(NC(=O)CSCC#N)C(=O)N2C(C(=O)O)=C(CSc3nnnn3C)CS[C@@H]21` [CEFMETAZOLE], the IC50 result (at Progesterone receptor; in test [1]; in test [2]; in test [3] (insect cells); in test [4] (insect cells)) was “Not Active” throughout.

In the case of `CN(C(=O)CCCOc1ccc2[nH]c(=O)ccc2c1)C1CCCCC1` [CILOSTAMIDE], the IC50 result (on Progesterone receptor; in test [1]; in test [2]; in test [3] (insect cells); in test [4] (insect cells)) was “Not Active” throughout.

On to `CC(C)(Oc1ccc(C2CC2(Cl)Cl)cc1)C(=O)O` (centres undefined) [CIPROFIBRATE], for which the 50% inhibitory concentration (IC50) result (on Progesterone receptor; in test [1]; in test [2]; in test [3] (insect cells); in test [4] (insect cells)) was “Not Active” each time.

`Nc1nc(Cl)nc2c1ncn2[C@H]1C[C@H](O)[C@@H](CO)O1` [CLADRIBINE]: the half-inhibitory concentration (IC50) result (at Progesterone receptor; in test [1]; in test [2]; in test [3] (insect cells); in test [4] (insect cells)) was “Not Active” each time.

Regarding `CC[C@H]1OC(=O)[C@H](C)[C@@H](O[C@H]2C[C@@](C)(OC)[C@@H](O)[C@H](C)O2)[C@H](C)[C@@H](O[C@@H]2O[C@H](C)C[C@H](N(C)C)[C@H]2O)[C@](C)(OC)C[C@@H](C)C(=O)[C@H](C)[C@@H](O)[C@]1(C)O` [CLARITHROMYCIN], the 50% inhibitory concentration (IC50) result (on Progesterone receptor; in test [1]; in test [2]; in test [3] (insect cells); in test [4] (insect cells)) was “Not Active” in each case.

As to `CCC[C@@H]1C[C@@H](C(=O)N[C@@H]([C@H]2O[C@H](SC)[C@H](O)[C@@H](O)[C@H]2O)[C@H](C)Cl)N(C)C1` [CLINDAMYCIN], the IC50 entry (on Progesterone receptor; in test [1]; in test [2]; in test [3] (insect cells); in test [4] (insect cells)) was “Not Active” in each case.

With `CC(C(=O)O)c1ccc(-c2ccccc2)c(F)c1` (centres undefined) [FLURBIPROFEN], the half-inhibitory concentration (IC50) result in test [1], in test [2], in test [3] (insect cells) and in test [4] (insect cells) was “Not Active” each time.

Values taken from ChEMBL document CHEMBL1909046, “DrugMatrix in vitro pharmacology data”.
